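How tested: cells in 96-well plates exposed to compound for 48 hours at five concentrations. The concentration for 50% growth inhibition is given as GI50. The concentration for full growth arrest is given as TGI.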
Columns and labels:
Assay in all cases: NCI tumour cell line growth inhibition, 48 h
DU-145 prostate = test system: DU-145 prostate
MDA-MB-231 breast = test system: MDA-MB-231 breast
NCI-H522 lung = test system: NCI-H522 lung
CCRF-CEM leukemia = test system: CCRF-CEM leukemia
HL-60(TB) leukemia = test system: HL-60(TB) leukemia
SF-268 CNS = test system: SF-268 CNS
SR leukemia = test system: SR leukemia
HT29 colon = test system: HT29 colon
UACC-257 melanoma = test system: UACC-257 melanoma
SN12C renal = test system: SN12C renal
TK-10 renal = test system: TK-10 renal
M14 melanoma = test system: M14 melanoma
OVCAR-4 ovarian = test system: OVCAR-4 ovarian
SF-539 CNS = test system: SF-539 CNS
SK-OV-3 ovarian = test system: SK-OV-3 ovarian
A549 NSCLC = test system: A549 NSCLC
KM12 colon = test system: KM12 colon
CAKI-1 renal = test system: CAKI-1 renal
SNB-19 CNS = test system: SNB-19 CNS
IGROV1 ovarian = test system: IGROV1 ovarian
SNB-75 CNS = test system: SNB-75 CNS
HCC-2998 colon = test system: HCC-2998 colon
UACC-62 melanoma = test system: UACC-62 melanoma
NCI-H226 lung = test system: NCI-H226 lung
RPMI-8226 leukemia = test system: RPMI-8226 leukemia
786-0 renal = test system: 786-0 renal
EKVX NSCLC = test system: EKVX NSCLC
K-562 leukemia = test system: K-562 leukemia
LOX IMVI melanoma = test system: LOX IMVI melanoma
MCF7 breast = test system: MCF7 breast
BT-549 breast = test system: BT-549 breast
MDA-MB-435 = test system: MDA-MB-435
SK-MEL-2 melanoma = test system: SK-MEL-2 melanoma
NCI-H23 lung = test system: NCI-H23 lung
OVCAR-5 ovarian = test system: OVCAR-5 ovarian
HOP-92 NSCLC = test system: HOP-92 NSCLC
SF-295 CNS = test system: SF-295 CNS
HCT-116 colon = test system: HCT-116 colon
A498 renal = test system: A498 renal
UO-31 renal = test system: UO-31 renal
HOP-62 NSCLC = test system: HOP-62 NSCLC
OVCAR-8 ovarian = test system: OVCAR-8 ovarian
NCI/ADR-RES ovarian = test system: NCI/ADR-RES ovarian
MALME-3M melanoma = test system: MALME-3M melanoma
SK-MEL-5 melanoma = test system: SK-MEL-5 melanoma
T-47D breast = test system: T-47D breast
ACHN renal = test system: ACHN renal
U251 CNS = test system: U251 CNS
OVCAR-3 ovarian = test system: OVCAR-3 ovarian
PC-3 prostate = test system: PC-3 prostate
MOLT-4 leukemia = test system: MOLT-4 leukemia
NCI-H460 lung = test system: NCI-H460 lung
COLO 205 colon = test system: COLO 205 colon
HCT-15 colon = test system: HCT-15 colon

Compound: COc1cc(C(=O)/C=C/c2c(-c3cccs3)nc3sc(C)cn23)cc(OC)c1OC
- GI50 (DU-145 prostate): 2.99 µM
- TGI (DU-145 prostate): 14 µM
- GI50 (MDA-MB-231 breast): 2.96 µM
- TGI (MDA-MB-231 breast): 31.1 µM
- GI50 (NCI-H522 lung): 1.36 µM
- TGI (NCI-H522 lung): 4.57 µM
- GI50 (CCRF-CEM leukemia): 1.93 µM
- TGI (CCRF-CEM leukemia): > 100 µM
- GI50 (HL-60(TB) leukemia): 2.69 µM
- TGI (HL-60(TB) leukemia): > 100 µM
- GI50 (SF-268 CNS): 3.84 µM
- TGI (SF-268 CNS): > 100 µM
- GI50 (SR leukemia): 1.12 µM
- TGI (SR leukemia): 5.46 µM
- GI50 (HT29 colon): 3.91 µM
- TGI (HT29 colon): > 100 µM
- GI50 (UACC-257 melanoma): 3.86 µM
- TGI (UACC-257 melanoma): 66 µM
- GI50 (SN12C renal): 5.29 µM
- TGI (SN12C renal): > 100 µM
- GI50 (TK-10 renal): 6.16 µM
- TGI (TK-10 renal): > 100 µM
- GI50 (M14 melanoma): 5.59 µM
- TGI (M14 melanoma): > 100 µM
- GI50 (OVCAR-4 ovarian): 2.85 µM
- TGI (OVCAR-4 ovarian): 22.3 µM
- GI50 (SF-539 CNS): 2.12 µM
- TGI (SF-539 CNS): 5.17 µM
- GI50 (SK-OV-3 ovarian): 3.37 µM
- TGI (SK-OV-3 ovarian): 10.4 µM
- GI50 (A549 NSCLC): 2.69 µM
- TGI (A549 NSCLC): 19.6 µM
- GI50 (KM12 colon): 2.83 µM
- TGI (KM12 colon): > 100 µM
- GI50 (CAKI-1 renal): 2.92 µM
- TGI (CAKI-1 renal): > 100 µM
- GI50 (SNB-19 CNS): 2.91 µM
- TGI (SNB-19 CNS): 13.3 µM
- GI50 (IGROV1 ovarian): 2.53 µM
- TGI (IGROV1 ovarian): 6.35 µM
- GI50 (SNB-75 CNS): 2.49 µM
- TGI (SNB-75 CNS): 6.93 µM
- GI50 (HCC-2998 colon): 3.87 µM
- TGI (HCC-2998 colon): 12.4 µM
- GI50 (UACC-62 melanoma): 2.52 µM
- TGI (UACC-62 melanoma): 19.9 µM
- GI50 (NCI-H226 lung): 4.6 µM
- TGI (NCI-H226 lung): 54.8 µM
- GI50 (RPMI-8226 leukemia): 1.67 µM
- TGI (RPMI-8226 leukemia): 15.6 µM
- GI50 (786-0 renal): 3.7 µM
- TGI (786-0 renal): 38.2 µM
- GI50 (EKVX NSCLC): 1.99 µM
- TGI (EKVX NSCLC): > 100 µM
- GI50 (K-562 leukemia): 2.07 µM
- TGI (K-562 leukemia): > 100 µM
- GI50 (LOX IMVI melanoma): 3.84 µM
- TGI (LOX IMVI melanoma): > 100 µM
- GI50 (MCF7 breast): 2.35 µM
- TGI (MCF7 breast): 20.5 µM
- GI50 (BT-549 breast): 3.82 µM
- TGI (BT-549 breast): 39.9 µM
- GI50 (MDA-MB-435): 2.68 µM
- TGI (MDA-MB-435): 31.6 µM
- GI50 (SK-MEL-2 melanoma): 2.73 µM
- TGI (SK-MEL-2 melanoma): 8.31 µM
- GI50 (NCI-H23 lung): 4.97 µM
- TGI (NCI-H23 lung): > 100 µM
- GI50 (OVCAR-5 ovarian): 82 µM
- TGI (OVCAR-5 ovarian): > 100 µM
- GI50 (HOP-92 NSCLC): 0.47 µM
- TGI (HOP-92 NSCLC): 4.93 µM
- GI50 (SF-295 CNS): 3.69 µM
- TGI (SF-295 CNS): > 100 µM
- GI50 (HCT-116 colon): 3.8 µM
- TGI (HCT-116 colon): > 100 µM
- GI50 (A498 renal): 1.51 µM
- TGI (A498 renal): 5.78 µM
- GI50 (UO-31 renal): 1.84 µM
- TGI (UO-31 renal): 7.97 µM
- GI50 (HOP-62 NSCLC): 5.74 µM
- TGI (HOP-62 NSCLC): 64.5 µM
- GI50 (OVCAR-8 ovarian): 1.21 µM
- TGI (OVCAR-8 ovarian): 8.31 µM
- GI50 (NCI/ADR-RES ovarian): 2.1 µM
- TGI (NCI/ADR-RES ovarian): 33.9 µM
- GI50 (MALME-3M melanoma): 3.19 µM
- TGI (MALME-3M melanoma): 15 µM
- GI50 (SK-MEL-5 melanoma): 0.948 µM
- TGI (SK-MEL-5 melanoma): 3.22 µM
- GI50 (T-47D breast): 1.77 µM
- TGI (T-47D breast): 7.65 µM
- GI50 (ACHN renal): 5.15 µM
- TGI (ACHN renal): > 100 µM
- GI50 (U251 CNS): 3.72 µM
- TGI (U251 CNS): > 100 µM
- GI50 (OVCAR-3 ovarian): 2.8 µM
- TGI (OVCAR-3 ovarian): 18.7 µM
- GI50 (PC-3 prostate): 2.8 µM
- TGI (PC-3 prostate): > 100 µM
- GI50 (MOLT-4 leukemia): 1.27 µM
- TGI (MOLT-4 leukemia): 6.62 µM
- GI50 (NCI-H460 lung): 1.87 µM
- TGI (NCI-H460 lung): 5.3 µM
- GI50 (COLO 205 colon): 4.01 µM
- TGI (COLO 205 colon): > 100 µM
- GI50 (HCT-15 colon): 3.38 µM
- TGI (HCT-15 colon): > 100 µM
